# Measured values reported in patent US20250205197A1.
# Entries after “also recorded” stand apart in the source; their conditions may differ.
# Legend:
# [1] = test system: HepG2 cells; assay: PrestoBlue cell viability assay in HepG2 cells; type: cell-based, human; conditions: 48 hours incubation
# Description: Methanol or DMSO were used as vehicles, at concentrations 0, 0.001, 0.01, 0.1, and 1% (methanol) or 0, 0.001, 0.01, 0.1, and 1% (DMSO), respectively. […] Non-treated cells were assigned 100% viability. Bar graphs show the mean+/−SD, n=3.
# Non-treated cells were assigned 100% viability. Bar graphs show the mean+/−SD, n=3.
# [2] = In vitro metabolic stability assay, human AB serum; type: in vitro ADME; conditions: 10% human AB serum
# Description: (§1) A fundamental evaluation in drug development is the assessment of absorption, distribution, metabolism, excretion, and pharmacokinetics (ADME/PK) (Eddershaw et al., 2000, Drug Discovery Today 5(9): 409-414). […] Drug stability upon exposure to human liver microsomes and liver S9 cellular fractions is a common in vitro assay to approximate in vivo, liver-based drug metabolism (Richardson et al., 2016 Drug Metabolism Letters 10:83-90). First-pass metabolism is also often approximated in vitro using intestinal microsome and cellular S9 fractions (Hatley et al., 2017, Biopharmaceuticals & Drug Disposition, 38(2):155-160). Further, it is well known that human serum, and particularly circulating serum esterases can contribute to systemic drug metabolism (Williams, F M 1987, Pharmacology and Therapeutics, 34:99-109). Many pharmacological agents are classified as prodrugs, as they undergo metabolic transformation in vivo upon administration to release the active drug compound into the systemic compartment (Zawilska J B, et al. 2013, Pharmacological Reports, 65:1-14). Psilocybin, a serotonergic psychedelic agent, is well known prodrug that is metabolized into the psychoactive product, psilocin (Dinis-Oliveira, R J 2017, Drug Metabolism Reviews, 49(1):84-91). […] Supernatants were analyzed for the presence of candidate prodrugs (parent molecule) and psilocin (the predicted metabolite) using Orbitrap LC-MS (Thermo Scientific) using previously described methods (Menéndez-Perdomo et al., 2021, J Mass Spectrom, 56: e4683). […] Assay concentrations (μM) of both parent ‘prodrug’ molecule and psilocin metabolite, as quantified through LC-MS using routine standard curve procedures, were plotted as functions of assay time (minutes). The metabolism rate (T1/2) was determined from the metabolism curve plot using the one phase decay feature of GraphPad PRISM software (Version 9.2.0). The quantity of parent prodrug at time zero was set as 100%. […]
# [3] = In vitro metabolic stability and psilocin-release assays, statements covering several fractions; type: in vitro ADME, human
# Description: as §1
# [4] = molecular target: T1, 5-HT2A receptor (Mus musculus, UniProt P35363); assay: Drug-induced Head Twitch Response (HTR) in mice; type: in vivo; conditions: i.p. 1 mg/kg; for Head Twitch Response (HTR): 15-to-30-minute window following administration, relative to vehicle
# T1 construct: tissue Charles River; host or cells: living C57BL/6-Elite mice (brain, in vivo)
# [5] = Mouse pharmacokinetic (PK) evaluation of drug metabolism to psilocin; type: in vivo, C57Bl/6 mice; conditions: mice
# [6] = molecular target: T2, 5-HT1A receptor (Homo sapiens, UniProt P08908); assay: cAMP-Glo assay of 5-HT1A receptor modulation, CHO-K1/5-HT1A/Ga15 vs CHO-K1/Ga15 cells; type: cell-based; conditions: for 5-HT1A receptor modulation (cAMP, +5-HT1A vs −5-HT1A cultures): forskolin-stimulated cells, 20 minutes treatment; for cAMP levels with increasing ligand: +5-HT1A cells stimulated with forskolin, control ligands
# T2 construct: host or cells: CHO-K1 (co-expressing Ga15)
# T2 sequence (P08908 1-422): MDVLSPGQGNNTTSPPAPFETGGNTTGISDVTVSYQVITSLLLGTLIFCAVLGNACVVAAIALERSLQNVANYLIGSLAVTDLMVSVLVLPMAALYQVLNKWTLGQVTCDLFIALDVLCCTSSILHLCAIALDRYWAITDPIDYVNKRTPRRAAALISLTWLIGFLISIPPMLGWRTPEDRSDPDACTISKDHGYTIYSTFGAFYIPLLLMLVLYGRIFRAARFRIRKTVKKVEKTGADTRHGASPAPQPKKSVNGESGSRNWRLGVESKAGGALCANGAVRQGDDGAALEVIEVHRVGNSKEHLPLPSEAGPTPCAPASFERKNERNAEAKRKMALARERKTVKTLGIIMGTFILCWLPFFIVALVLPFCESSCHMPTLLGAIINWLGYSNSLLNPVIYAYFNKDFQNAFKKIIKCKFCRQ
# [7] = Solubility of the salt in water
# [8] = In vitro metabolic stability assay, human liver microsomes; type: in vitro ADME; conditions: HLM fraction, 37° C., NADPH
# Description: as §1, with “38(2):155-160).” for “38(2):155-160). Further, it is well known that human serum, and particularly circulating serum esterases can contribute to systemic drug metabolism (Williams, F M 1987, Pharmacology and Therapeutics, 34:99-109). Many pharmacological agents are classified as prodrugs, as they undergo metabolic transformation in vivo upon administration to release the active drug compound into the systemic compartment (Zawilska J B, et al. 2013, Pharmacological Reports, 65:1-14). Psilocybin, a serotonergic psychedelic agent, is well known prodrug that is metabolized into the psychoactive product, psilocin (Dinis-Oliveira, R J 2017, Drug Metabolism Reviews, 49(1):84-91).”
# [9] = In vitro metabolic stability assay, human liver S9 fractions; type: in vitro ADME; conditions: HLS9 fraction, 37° C., NADPH
# Description: as §1, with “38(2):155-160).” for “38(2):155-160). Further, it is well known that human serum, and particularly circulating serum esterases can contribute to systemic drug metabolism (Williams, F M 1987, Pharmacology and Therapeutics, 34:99-109). Many pharmacological agents are classified as prodrugs, as they undergo metabolic transformation in vivo upon administration to release the active drug compound into the systemic compartment (Zawilska J B, et al. 2013, Pharmacological Reports, 65:1-14). Psilocybin, a serotonergic psychedelic agent, is well known prodrug that is metabolized into the psychoactive product, psilocin (Dinis-Oliveira, R J 2017, Drug Metabolism Reviews, 49(1):84-91).”
# [10] = molecular target: 5-HT2A receptor (Homo sapiens, UniProt P28223); assay: [3H]ketanserin radioligand competition binding assay (SPA); conditions: [3H]ketanserin competition
# [11] = Stability assay in enzyme-free control buffer; type: in vitro ADME; conditions: negative control buffer, pH 7.4
# Description: as §1, with “38(2):155-160).” for “38(2):155-160). Further, it is well known that human serum, and particularly circulating serum esterases can contribute to systemic drug metabolism (Williams, F M 1987, Pharmacology and Therapeutics, 34:99-109). Many pharmacological agents are classified as prodrugs, as they undergo metabolic transformation in vivo upon administration to release the active drug compound into the systemic compartment (Zawilska J B, et al. 2013, Pharmacological Reports, 65:1-14). Psilocybin, a serotonergic psychedelic agent, is well known prodrug that is metabolized into the psychoactive product, psilocin (Dinis-Oliveira, R J 2017, Drug Metabolism Reviews, 49(1):84-91).”
# T1 sequence (P35363 whole entry): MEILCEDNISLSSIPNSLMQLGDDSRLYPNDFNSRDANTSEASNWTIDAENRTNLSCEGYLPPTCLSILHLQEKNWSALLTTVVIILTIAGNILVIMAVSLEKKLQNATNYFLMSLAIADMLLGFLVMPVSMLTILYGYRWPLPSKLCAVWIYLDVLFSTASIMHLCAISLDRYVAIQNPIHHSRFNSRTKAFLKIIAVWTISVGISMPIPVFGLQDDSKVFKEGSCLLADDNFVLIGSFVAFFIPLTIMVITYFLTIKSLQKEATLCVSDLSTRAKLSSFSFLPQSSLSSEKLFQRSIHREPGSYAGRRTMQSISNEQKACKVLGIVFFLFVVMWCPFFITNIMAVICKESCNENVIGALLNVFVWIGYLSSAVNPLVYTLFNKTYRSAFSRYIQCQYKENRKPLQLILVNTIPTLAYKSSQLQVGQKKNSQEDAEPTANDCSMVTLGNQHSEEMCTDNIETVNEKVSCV
# Sequence of 5-HT2A receptor (Homo sapiens, UniProt P28223) (P28223 whole entry): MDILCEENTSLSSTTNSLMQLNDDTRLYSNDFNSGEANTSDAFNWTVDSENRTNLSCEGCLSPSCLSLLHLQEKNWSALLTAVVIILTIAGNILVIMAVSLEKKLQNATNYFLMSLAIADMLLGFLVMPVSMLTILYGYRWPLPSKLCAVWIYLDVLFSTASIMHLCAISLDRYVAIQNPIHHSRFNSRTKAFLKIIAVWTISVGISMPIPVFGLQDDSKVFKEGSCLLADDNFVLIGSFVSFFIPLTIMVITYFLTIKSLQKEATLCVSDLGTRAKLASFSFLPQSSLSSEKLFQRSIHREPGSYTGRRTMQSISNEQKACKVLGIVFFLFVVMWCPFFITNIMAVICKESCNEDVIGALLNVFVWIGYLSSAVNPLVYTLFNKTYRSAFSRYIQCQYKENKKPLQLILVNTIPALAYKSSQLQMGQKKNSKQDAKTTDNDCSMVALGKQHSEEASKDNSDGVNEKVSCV
compound,measurement,setting,value
CN(C)CCc1c[nH]c2cccc(OC(=O)OCc3ccccc3)c12 [B(II)],"CD50 (cytotoxicity, cell viability)",[1],65.9 µM
same,stability / dissociation to psilocin in serum,[2],failed completely to dissociate
same,dissociation to psilocin,"[3]; HLM, HLS9, HIM, HIS9, AB serum, buffer control",did not readily dissociate to psilocin under any conditions
same,Head Twitch Response (HTR),[4],elicit head twitching
same,time the derivative resides in plasma post-dosing,[5]; oral 10 mg/kg,up to 4 hours
CN(C)CCc1c[nH]c2cccc(OC(=O)c3ccc(Br)cc3)c12 [C(I)],"5-HT1A receptor modulation (cAMP, +5-HT1A vs −5-HT1A cultures)",[6],mild receptor modulation at higher ligand concentrations
same,Head Twitch Response (HTR),[4],Elevated incidences of HTR
COCCOCCOCC(=O)Oc1cccc2[nH]cc(CCN(C)C)c12 [C(III)],"5-HT1A receptor modulation (cAMP, +5-HT1A vs −5-HT1A cultures)",[6],significant receptor modulation
same,Head Twitch Response (HTR),[4],Elevated incidences of HTR
CN(C)CCc1c[nH]c2cccc(OC(=O)CC3CC3)c12 [C(IV)],"5-HT1A receptor modulation (cAMP, +5-HT1A vs −5-HT1A cultures)",[6],significant receptor modulation
same,Head Twitch Response (HTR),[4],Elevated incidences of HTR
COc1ccc(C(=O)Oc2cccc3[nH]cc(CCN(C)C)c23)cc1 [C(V)],"5-HT1A receptor modulation (cAMP, +5-HT1A vs −5-HT1A cultures)",[6],mild receptor modulation at higher ligand concentrations
same,Head Twitch Response (HTR),[4],Elevated incidences of HTR
CN(C)CCc1c[nH]c2cccc(OC(=O)c3c(F)c(F)c(F)c(F)c3F)c12 [C(VI)],"5-HT1A receptor modulation (cAMP, +5-HT1A vs −5-HT1A cultures)",[6],no receptor modulation at higher ligand concentrations
same,Head Twitch Response (HTR),[4],Elevated incidences of HTR
CN(C)CCc1c[nH]c2cccc(OC(=O)c3cccc(C(=O)Oc4cccc5[nH]cc(CCN(C)C)c45)c3)c12 [C(VII)],"5-HT1A receptor modulation (cAMP, +5-HT1A vs −5-HT1A cultures)",[6],no significant receptor modulation
same,Head Twitch Response (HTR),[4],Elevated incidences of HTR
COc1ccc(C(=O)Oc2cccc3[nH]cc(CCN(C)C)c23)cc1 [C(Va1)],solubility in water,[7],≥ 10 mg per mL
COc1ccc(C(=O)Oc2cccc3[nH]cc(CCN(C)C)c23)cc1.O=C(O)C(O)C(O)C(=O)O [C(Va2)],solubility in water,[7],≥ 10 mg per mL
COc1ccc(C(=O)Oc2cccc3[nH]cc(CCN(C)C)c23)cc1 [C(Vb1)],solubility in water,[7],< 1 mg in a mL
COC(=O)c1cccc(C(=O)Oc2cccc3[nH]cc(CCN(C)C)c23)c1 [C(XLIII)],"5-HT1A receptor modulation (cAMP, +5-HT1A vs −5-HT1A cultures)",[6],receptor modulation at higher ligand concentrations
CN(C)CCc1c[nH]c2cccc(OC(=O)c3cccc4c3OCCO4)c12 [C(XX)],"5-HT1A receptor modulation (cAMP, +5-HT1A vs −5-HT1A cultures)",[6],significant receptor modulation
same,Head Twitch Response (HTR),[4],Elevated incidences of HTR
CN(C)CCc1c[nH]c2cccc(OC(=O)SCc3ccccc3)c12 [E(VI)],"5-HT1A receptor modulation (cAMP, +5-HT1A vs −5-HT1A cultures)",[6],mild receptor modulation at higher ligand concentrations
same,half-life (T1/2),[8],6 min
same,half-life (T1/2),[9],5 min
same,stability / dissociation to psilocin in serum,[2],nearly completely disappears
same,conversion to psilocin,[3]; liver fractions and serum,quickly converted to psilocin in liver fractions and serum
same,"Head Twitch Response, E(VI) compared to B(II)",[4],elevated response
same,Head Twitch Response (HTR),[4]; 1 mg/kg,Elevated incidences of HTR; also recorded: elicit head twitching
same,detection of the derivative in plasma,[5]; oral 1 mg/kg,neither B(II) nor E(VI) were detected in plasma
same,detection of the derivative in plasma,[5]; oral 3 mg/kg and 10 mg/kg,never detected at any timepoint
CN(C)CCc1c[nH]c2cccc(OC(=O)SCc3ccccc3)c12.Cl [E(VIa1)],solubility in water,[7],≥ 10 mg per mL
CN(C)CCc1c[nH]c2cccc(OC(=O)SCc3ccccc3)c12 [E(VIb1)],solubility,[7],> 10000 µg/mL
"CN(C)CCc1c[nH]c2cccc(O)c12 [psilocin, reference compound]",cAMP levels with increasing ligand,[6],reduction in cAMP levels
same,"competition binding at 5-HT2A (controls, in words)",[10],binding
CN(C)CCc1c[nH]c2cccc(OP(=O)(O)O)c12 [psilocybin],stability / dissociation to psilocin in serum,[2],stable in serum with no conversion to psilocin
same,stability in assay buffer,[11],stability of psilocybin was confirmed in assay buffer
same,stability / conversion to psilocin in liver fractions,"[3]; liver fractions (HLM, HLS9)",stable in liver fractions with no conversion to psilocin
"NCCc1c[nH]c2ccc(O)cc12 [serotonin, reference compound]",cAMP levels with increasing ligand,[6],reduction in cAMP levels
"N[C@@H](Cc1c[nH]c2ccccc12)C(=O)O [tryptophan, reference compound]",cAMP levels with increasing ligand,[6],no reduction in cellular cAMP levels
same,"competition binding at 5-HT2A (controls, in words)",[10],no binding
